One block for each molecule: values may come before it. Activity calls are given as the source filed them. The calls are words filed in the database; no cut-off is given here.
Legend:
[1] = target: T1, Poly [ADP-ribose] polymerase 1 (Homo sapiens, UniProt P09874); experiment: Inhibition of PARP1
[2] = target: T1, Poly [ADP-ribose] polymerase 1; experiment: Inhibition of PARP1 in cell based assay
[3] = Half life in mouse at 5 mg/kg, iv; format: ADME, organism-based; set-up: dose 5 mg/kg, route intravenous; conditions: in vivo
[4] = Volume of distribution in mouse at 5 mg/kg, iv and 10 mg/kg, po; format: ADME, organism-based; conditions: in vivo
[5] = Clearance in mouse at 5 mg/kg, iv and 10 mg/kg, po; format: ADME, organism-based; conditions: in vivo
[6] = Oral bioavailability in mouse at 10 mg/kg; format: ADME, organism-based; conditions: in vivo
[7] = AUC in mouse at 10 mg/kg, po; format: ADME, organism-based; set-up: dose 10 mg/kg, route oral; conditions: plasma
B16-F10 = experiment: Potentiation of temozolomide-induced cytotoxicity in mouse B16F10 cells […] C57BL/6 mouse melanoma model assessed as reduction in tumor volume at 30 mg/kg, po; format: functional, organism-based; set-up: dose 30 mg/kg
[8] = Half life in mouse at 3 mg/kg, iv and 10 mg/kg, po; format: ADME, organism-based; conditions: in vivo
[9] = Volume of distribution in mouse at 3 mg/kg, iv and 10 mg/kg, po; format: ADME, organism-based; conditions: in vivo
[10] = Clearance in mouse at 3 mg/kg, iv and 10 mg/kg, po; format: ADME, organism-based; conditions: in vivo
[11] = Half life in rat at 5 mg/kg, iv and 5 mg/kg, po; format: ADME, organism-based; conditions: in vivo
[12] = Volume of distribution in rat at 5 mg/kg, iv and 5 mg/kg, po; format: ADME, organism-based; conditions: in vivo
[13] = Clearance in rat at 5 mg/kg, iv and 5 mg/kg, po; format: ADME, organism-based; conditions: in vivo
[14] = Oral bioavailability in rat at 5 mg/kg; format: ADME, organism-based; conditions: in vivo
[15] = AUC in rat at 5 mg/kg, po; format: ADME, organism-based; set-up: dose 5 mg/kg, route oral; conditions: plasma
[16] = Half life in dog at 2.5 mg/kg, iv and 2.5 mg/kg, po; format: ADME, organism-based, Canis lupus familiaris; conditions: in vivo
[17] = Volume of distribution in dog at 2.5 mg/kg, iv and 2.5 mg/kg, po; format: ADME, organism-based, Canis lupus familiaris; conditions: in vivo
[18] = Clearance in dog at 2.5 mg/kg, iv and 2.5 mg/kg, po; format: ADME, organism-based, Canis lupus familiaris; conditions: in vivo
[19] = Oral bioavailability in dog at 2.5 mg/kg; format: ADME, organism-based, Canis lupus familiaris; conditions: in vivo
[20] = AUC in dog at 2.5 mg/kg, po; format: ADME, organism-based, Canis lupus familiaris; set-up: dose 2.5 mg/kg, route oral; conditions: plasma
[21] = Half life in monkey at 2.5 mg/kg, iv and 2.5 mg/kg, po; format: ADME, organism-based, Macaca mulatta; conditions: rhesus monkey, in vivo
[22] = Volume of distribution in monkey at 2.5 mg/kg, iv and 2.5 mg/kg, po; format: ADME, organism-based, Macaca mulatta; conditions: rhesus monkey, in vivo
[23] = Clearance in monkey at 2.5 mg/kg, iv and 2.5 mg/kg, po; format: ADME, organism-based, Macaca mulatta; conditions: rhesus monkey, in vivo
[24] = Oral bioavailability in monkey at 2.5 mg/kg; format: ADME, organism-based, Macaca mulatta; conditions: rhesus monkey, in vivo
[25] = AUC in monkey at 2.5 mg/kg, po; format: ADME, organism-based, Macaca mulatta; set-up: dose 2.5 mg/kg, route oral; conditions: rhesus monkey, plasma

T1 sequence (P09874 whole entry): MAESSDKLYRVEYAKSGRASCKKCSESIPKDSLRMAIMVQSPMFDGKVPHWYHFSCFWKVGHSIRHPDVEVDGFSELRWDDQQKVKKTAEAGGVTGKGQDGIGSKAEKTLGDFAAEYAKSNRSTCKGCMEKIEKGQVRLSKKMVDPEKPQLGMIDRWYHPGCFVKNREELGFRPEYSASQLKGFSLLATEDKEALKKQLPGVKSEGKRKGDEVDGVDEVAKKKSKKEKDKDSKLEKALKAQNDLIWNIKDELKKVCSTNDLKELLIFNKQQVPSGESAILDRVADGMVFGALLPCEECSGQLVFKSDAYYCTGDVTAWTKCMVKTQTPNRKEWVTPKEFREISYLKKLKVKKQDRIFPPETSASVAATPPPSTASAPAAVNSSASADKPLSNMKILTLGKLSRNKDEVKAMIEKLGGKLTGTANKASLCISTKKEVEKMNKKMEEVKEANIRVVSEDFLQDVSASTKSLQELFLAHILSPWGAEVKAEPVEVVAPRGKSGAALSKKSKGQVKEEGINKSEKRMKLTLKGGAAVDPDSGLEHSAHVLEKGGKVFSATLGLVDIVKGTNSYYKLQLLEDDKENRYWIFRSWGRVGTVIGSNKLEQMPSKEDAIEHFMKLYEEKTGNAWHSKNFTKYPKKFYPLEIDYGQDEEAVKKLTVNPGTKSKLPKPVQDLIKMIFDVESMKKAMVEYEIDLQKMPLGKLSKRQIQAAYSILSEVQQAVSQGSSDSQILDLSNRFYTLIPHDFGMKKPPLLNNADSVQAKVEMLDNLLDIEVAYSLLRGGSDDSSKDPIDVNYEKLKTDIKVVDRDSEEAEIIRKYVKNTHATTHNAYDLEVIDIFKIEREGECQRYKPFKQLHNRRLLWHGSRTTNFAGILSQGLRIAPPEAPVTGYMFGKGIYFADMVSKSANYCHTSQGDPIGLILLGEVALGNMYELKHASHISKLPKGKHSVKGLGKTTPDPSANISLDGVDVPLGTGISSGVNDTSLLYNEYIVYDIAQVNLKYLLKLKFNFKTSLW

SMILES: CCNC(=O)NC(C)(C)c1nc2c(C(N)=O)cccc2[nH]1
Ki [1]: 870 nM

SMILES: CN(CC1CCOC1)C(C)(C)c1nc2cccc(C(N)=O)c2[nH]1 (stereo not drawn)
Ki [1]: 17 nM

SMILES: NC(=O)c1cccc2[nH]c(C3(N)Cc4ccccc4C3)nc12
Ki [1]: 58 nM

SMILES: CC(CCNC1CCCC1)c1nc2c(C(N)=O)cccc2[nH]1 (stereo not drawn)
Ki [1]: 45 nM

SMILES: NC(=O)c1cccc2[nH]c(C3(N)CCc4ccccc4C3)nc12 (stereo not drawn)
Ki [1]: 18 nM

SMILES: NC(=O)c1cccc2[nH]c(C3(N)CCCCC3)nc12
Ki [1]: 50 nM

SMILES: CC(C)(NCC1CC1)c1nc2c(C(N)=O)cccc2[nH]1
Ki [1]: 7 nM | EC50 [2]: 2 nM | half-life [3]: 48 min | Vd [4]: 13.3 L/kg | clearance [5]: 192 mL/min/kg | bioavailability [6]: 100% | AUC [7]: 3.38 µM·h

SMILES: CC(C)(c1nc2cccc(C(N)=O)c2[nH]1)N1CCCCC1
Ki [1]: 15 nM | EC50 [2]: 3.1 nM

SMILES: CC(C)(NCCc1ccccc1)c1nc2c(C(N)=O)cccc2[nH]1
Ki [1]: 37 nM | EC50 [2]: 9 nM

SMILES: CC(C)(NC1CCCC1)c1nc2c(C(N)=O)cccc2[nH]1
Ki [1]: 9 nM | EC50 [2]: 4 nM

SMILES: NC(=O)c1cccc2[nH]c(C3(N)CC3)nc12
Ki [1]: 25 nM

SMILES: CN(C1CCC1)C(C)(C)c1nc2c(C(N)=O)cccc2[nH]1
Ki [1]: 19 nM

SMILES: NC(=O)c1cccc2[nH]c(C3(N)CCC3)nc12
Ki [1]: 25 nM

SMILES: CNC(C)(C)c1nc2cccc(C(N)=O)c2[nH]1
Ki [1]: 4 nM | EC50 [2]: 1.3 nM | half-life [3]: 36 min | Vd [4]: 3.5 L/kg | clearance [5]: 70 mL/min/kg | bioavailability [6]: 85% | AUC [7]: 8.64 µM·h

SMILES: CC(N)c1nc2c(C(N)=O)cccc2[nH]1 (stereo not drawn)
Ki [1]: 50 nM

SMILES: CC(NC1CCCCC1)c1nc2c(C(N)=O)cccc2[nH]1 (stereo not drawn)
Ki [1]: 53 nM

SMILES: CC(NS(=O)(=O)N(C)C)c1nc2c(C(N)=O)cccc2[nH]1 (stereo not drawn)
Ki [1]: 140 nM

Further lines, with some results ahead:

Ki [1]: 24 nM
SMILES: CC(NCC1CC1)c1nc2c(C(N)=O)cccc2[nH]1 (stereo not drawn)

Ki [1]: 33 nM
SMILES: CC(NC1CCCC1)c1nc2c(C(N)=O)cccc2[nH]1 (stereo not drawn)

Ki [1]: 61 nM
SMILES: CCN(CC)C(C)c1nc2c(C(N)=O)cccc2[nH]1 (stereo not drawn)

Ki [1]: 35 nM
SMILES: CC(NCCc1ccccc1)c1nc2c(C(N)=O)cccc2[nH]1 (stereo not drawn)

Ki [1]: 19 nM
SMILES: CC(C)(N)c1nc2c(C(N)=O)cccc2[nH]1

Ki [1]: 3 nM | EC50 [2]: 0.9 nM | half-life [3]: 24 min | Vd [4]: 1.8 L/kg | clearance [5]: 50 mL/min/kg | bioavailability [6]: 52% | AUC [7]: 6.33 µM·h
SMILES: CC(C)(c1nc2c(C(N)=O)cccc2[nH]1)N1CCCC1
Activity (B16-F10): Active

Ki [1]: 32 nM
SMILES: CC(CCN)c1nc2c(C(N)=O)cccc2[nH]1 (stereo not drawn)

Ki [1]: 7 nM | EC50 [2]: 2 nM | half-life [3]: 36 min | Vd [4]: 2.1 L/kg | clearance [5]: 66.7 mL/min/kg | bioavailability [6]: 82% | AUC [7]: 5.78 µM·h | half-life [8]: 36 min | Vd [9]: 2.1 L/kg | clearance [10]: 66.7 mL/min/kg | half-life [11]: 60 min | Vd [12]: 3.7 L/kg | clearance [13]: 85 mL/min/kg | bioavailability [14]: 26% | AUC [15]: 0.74 µM·h | half-life [16]: 168 min | Vd [17]: 2.9 L/kg | clearance [18]: 14.2 mL/min/kg | bioavailability [19]: 70.5% | AUC [20]: 6.07 µM·h | half-life [21]: 36 min | Vd [22]: 1.1 L/kg | clearance [23]: 23.3 mL/min/kg | bioavailability [24]: 12.6% | AUC [25]: 0.65 µM·h
SMILES: CC(C)NC(C)(C)c1nc2c(C(N)=O)cccc2[nH]1
Activity (B16-F10): Active

Ki [1]: 9 nM | EC50 [2]: 1.8 nM
SMILES: CN(C)C(C)(C)c1nc2cccc(C(N)=O)c2[nH]1

Ki [1]: 12 nM
SMILES: CC(C)NC(C)c1nc2c(C(N)=O)cccc2[nH]1 (stereo not drawn)

Ki [1]: 41 nM
SMILES: CCCNC(C)c1nc2c(C(N)=O)cccc2[nH]1 (stereo not drawn)

Ki [1]: 10 nM | EC50 [2]: 3 nM
SMILES: CCCNC(C)(C)c1nc2c(C(N)=O)cccc2[nH]1

— ChEMBL document CHEMBL1155103, “Synthesis and SAR of novel, potent and orally bioavailable benzimidazole inhibitors of poly(ADP-ribose) polymerase (PARP) with a quaternary methylene-amino substituent” (Bioorg Med Chem Lett, 2008)
